Assay results from US12428395B2, “Heterocyclic compounds as kinase inhibitor and uses thereof” (SPEROGENIX THERAPEUTICS LIMITED, priority 2019, dated 2025).
pIC50: −log10 of the molar value.

Biological target: CHK-1 kinase (Homo sapiens (Human), UniProt O14757)
Assay: CHK-1 Kinase Assay (Z-LYTE based TR-FRET)
Assay type: biochemical
Settings: for inhibition at 1 µM: 1 μM compound, read-out: % Inhibition of CHK-1 enzyme activity @ 1 μM; for inhibition at 5 µM: 5 μM compound, read-out: % Inhibition of CHK-1 enzyme activity @ 5 μM; for inhibition at 0.1 µM: 0.1 μM compound, read-out: % Inhibition of CHK-1 enzyme activity @ 0.1 μM
Protocol: IC50 values of compounds for inhibition of CHK-1 kinase or percent inhibition at defined concentrations were determined by Z-LYTE™ based TR-FRET assay. Kinase reactions were performed in a 10 μL volume in low-volume 384-well plates. The concentration of substrate (Ser Thr 19) was maintained at 2 μM in the assay, and the kinase reaction buffer consisted of 50 mM HEPES pH 7.5, 0.01% BRIJ-35, 10 mM MgCl2, 1 mM EGTA, 2 mM DTT. Serially diluted compounds (3-fold) in DMSO (0.5% in final reaction) were incubated with cocktail of CHK-1 kinase (5 ng/ml; Cat #P3040, ThermoFisher), substrate Ser Thr 19, (2 μM; Cat #PV4529, ThermoFisher), ATP (53 μM; Cat #PV3227, ThermoFisher) and buffer. Kinase reactions were allowed to proceed for 1 hour at room temperature after which 5 μL of a 1:256 dilution of Development Reagent A was added. The plate was allowed to incubate at room temperature for 60 minutes before being read on a BMG Pherastar plate reader using the Z-LYTE™ filter block for Z-LYTE™ TR-FRET. The resulting TR-FRET emission ratio was used to calculate percent inhibition by normalizing with the control using the following formula: — [% Inhibition=1−{(% Phosphorylationsample/% Phosphorylationcontrol (0% Inhibition)}·100] For calculation of IC50, the percent inhibition obtained was plotted against the concentration of inhibitor, and the data was fit to a sigmoidal dose-response curve with a variable slope. The IC50 was calculated from the curve.

Sequence of CHK-1 kinase (O14757 whole entry): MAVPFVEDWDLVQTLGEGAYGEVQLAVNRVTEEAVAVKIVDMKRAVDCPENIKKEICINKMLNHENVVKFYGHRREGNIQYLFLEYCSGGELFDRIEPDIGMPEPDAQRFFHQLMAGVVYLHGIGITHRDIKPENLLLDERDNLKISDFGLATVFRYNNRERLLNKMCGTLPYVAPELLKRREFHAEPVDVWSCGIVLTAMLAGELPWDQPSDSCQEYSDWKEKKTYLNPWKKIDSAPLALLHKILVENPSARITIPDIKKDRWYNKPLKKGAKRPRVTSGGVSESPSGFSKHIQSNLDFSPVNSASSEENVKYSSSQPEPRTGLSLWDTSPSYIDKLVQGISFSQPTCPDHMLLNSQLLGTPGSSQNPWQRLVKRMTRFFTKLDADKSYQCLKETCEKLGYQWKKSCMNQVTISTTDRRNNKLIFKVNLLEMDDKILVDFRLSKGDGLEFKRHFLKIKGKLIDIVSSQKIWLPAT

Cn1cc(Nc2cc(NCC3CNCCO3)c(-c3ccccc3)nn2)cn1 (centres unmarked) [1.4, N3-(1-methyl-1H-pyrazol-4-yl)-N5-(morpholin-2-ylmethyl)-6-phenylpyridazine-3,5-diamine]
inhibition at 1 µM: 3% | inhibition at 5 µM: 5%

CC(C)(C)OC(=O)N1CCOC(CNc2cc(Nc3cnc(C#N)cn3)nnc2C(F)(F)F)C1 (centres unmarked) [1.5, tert-butyl 2-((6-(5-cyanopyrazin-2-ylamino)-3-(trifluoromethyl)pyridazin-4-ylamino)methyl)morpholine-4-carboxylate]
pIC50: < 5.00

N#Cc1cnc(Nc2cc(NCC3CCNCC3)c(C(F)(F)F)nn2)cn1 [1.8, 4-((6-(5-cyanopyrazin-2-ylamino)-3-(trifluoromethyl)pyridazin-4-ylamino)methyl)piperidinium 2,2,2-trifluoroacetate]
pIC50: 5.24

N#Cc1cnc(Nc2cc(OCC3CNCCO3)cnn2)cn1 (centres unmarked) [1.9, 5-(5-(morpholin-2-ylmethoxy)pyridazin-3-ylamino)pyrazine-2-carbonitrile]
pIC50: < 5.00

CN1CCC(CNc2cnnc(Nc3cnc(C#N)cn3)c2)CC1 [1.10, 5-(5-((1-methylpiperidin-4-yl)methylamino)pyridazin-3-ylamino)pyrazine-2-carbonitrile]
inhibition at 0.1 µM: 8% | inhibition at 1 µM: 3% | inhibition at 5 µM: 15%

Cn1ccc(-c2nnc(Nc3cnc(C#N)cn3)cc2OCC2CNCCO2)n1 (centres unmarked) [1.13, 5-(6-(1-methyl-1H-pyrazol-3-yl)-5-(morpholin-2-ylmethoxy)pyridazin-3-ylamino)pyrazine-2-carbonitrile]
inhibition at 0.1 µM: 9% | inhibition at 1 µM: 9% | inhibition at 5 µM: 11%

Cc1nnc(Nc2cnc(C#N)cn2)cc1NCC1CNCCO1 (centres unmarked) [1.14, 5-(6-methyl-5-(morpholin-2-ylmethylamino)pyridazin-3-ylamino)pyrazine-2-carbonitrile]
inhibition at 0.1 µM: 2% | inhibition at 1 µM: 15% | inhibition at 5 µM: 45%

Cc1nnc(Nc2cnc(C#N)cn2)cc1NCC1CCNCC1 [1.15, 5-(6-methyl-5-(piperidin-4-ylmethylamino)pyridazin-3-ylamino)pyrazine-2-carbonitrile]
inhibition at 0.1 µM: 7% | inhibition at 1 µM: 8% | inhibition at 5 µM: 23%

N#Cc1cnc(Nc2cc(NCC3CNCCO3)c(C3CC3)nn2)cn1 (centres unmarked) [1.17, 5-(6-cyclopropyl-5-(morpholin-2-ylmethylamino)pyridazin-3-ylamino)pyrazine-2-carbonitrile]
inhibition at 0.1 µM: 3% | inhibition at 1 µM: 12% | inhibition at 5 µM: 41%

N#Cc1cnc(Nc2cc(NCC3CCNCC3)c(C3CC3)nn2)cn1 [1.18, 5-(6-cyclopropyl-5-(piperidin-4-ylmethylamino)pyridazin-3-ylamino)pyrazine-2-carbonitrile]
inhibition at 0.1 µM: 6% | inhibition at 1 µM: 24% | inhibition at 5 µM: 59%

N#Cc1cnc(Nc2cc(NCC3CCNCC3)c(-c3ccc(F)cc3)nn2)cn1 [1.21, 5-(6-(4-fluorophenyl)-5-(piperidin-4-ylmethylamino)pyridazin-3-ylamino)pyrazine-2-carbonitrile]
inhibition at 0.1 µM: 3% | inhibition at 1 µM: 5% | inhibition at 5 µM: 33%

N#Cc1cnc(Nc2cc(NCC3CCNCC3)c(-c3ccc(Oc4ccccc4)cc3)nn2)cn1 [1.22, 5-(6-(4-phenoxyphenyl)-5-(piperidin-4-ylmethylamino)pyridazin-3-ylamino)pyrazine-2-carbonitrile]
inhibition at 0.1 µM: 8% | inhibition at 1 µM: 27% | inhibition at 5 µM: 65%

COc1ccc(-c2nnc(Nc3cnc(C#N)cn3)cc2NCC2CCNCC2)cc1 [1.23, 5-(6-(4-methoxyphenyl)-5-(piperidin-4-ylmethylamino)pyridazin-3-ylamino)pyrazine-2-carbonitrile]
inhibition at 0.1 µM: 7% | inhibition at 1 µM: 18% | inhibition at 5 µM: 41%

N#Cc1cnc(Nc2cc(NCC3CCNCC3)c(-c3cccc4[nH]ccc34)nn2)cn1 [1.24, 5-(6-(1H-indol-4-yl)-5-(piperidin-4-ylmethylamino)pyridazin-3-ylamino)pyrazine-2-carbonitrile]
inhibition at 0.1 µM: 2% | inhibition at 1 µM: 2% | inhibition at 5 µM: 34%

N#Cc1cnc(Nc2cc(NCC3CCNCC3)c(-c3cccc(N4CCCCC4)c3)nn2)cn1 [1.25, 5-(6-(3-(piperidin-1-yl)phenyl)-5-(piperidin-4-ylmethylamino)pyridazin-3-ylamino)pyrazine-2-carbonitrile]
inhibition at 0.1 µM: 8% | inhibition at 1 µM: 10% | inhibition at 5 µM: 42%

COc1cccc(-c2nnc(Nc3cnc(C#N)cn3)cc2NCC2CCNCC2)c1 [1.26, 5-(6-(3-methoxyphenyl)-5-(piperidin-4-ylmethylamino)pyridazin-3-ylamino)pyrazine-2-carbonitrile]
inhibition at 0.1 µM: 0% | inhibition at 1 µM: 9% | inhibition at 5 µM: 26%

N#Cc1cnc(Nc2cc(NCC3CCNCC3)c(-c3ccc(CO)cc3)nn2)cn1 [1.27, 5-(6-(4-(hydroxymethyl)phenyl)-5-(piperidin-4-ylmethylamino)pyridazin-3-ylamino)pyrazine-2-carbonitrile]
inhibition at 0.1 µM: 0% | inhibition at 1 µM: 8% | inhibition at 5 µM: 34%

Cn1ccc(-c2nnc(Nc3cnc(C#N)cn3)cc2NCC2CCNCC2)n1 [1.28, 5-(6-(1-methyl-1H-pyrazol-3-yl)-5-(piperidin-4-ylmethylamino)pyridazin-3-ylamino)pyrazine-2-carbonitrile]
inhibition at 0.1 µM: 13% | inhibition at 1 µM: 48% | inhibition at 5 µM: 86%

N#Cc1cnc(Nc2cc(NCC3CCOCC3)c(C(N)=O)nn2)cn1 [1.29, 6-(5-cyanopyrazin-2-ylamino)-4-((tetrahydro-2H-pyran-4-yl)methylamino)pyridazine-3-carboxamide]
inhibition at 0.1 µM: 19% | inhibition at 1 µM: 60% | inhibition at 5 µM: 93%

CNC(=O)c1nnc(Nc2cnc(C#N)cn2)cc1NCC1CCOCC1 [1.30, 6-(5-cyanopyrazin-2-ylamino)-N-methyl-4-((tetrahydro-2H-pyran-4-yl)methylamino)pyridazine-3-carboxamide]
inhibition at 0.1 µM: 28% | inhibition at 1 µM: 78% | inhibition at 5 µM: 97%

CC(C)Oc1nnc(Nc2cnc(C#N)cn2)cc1NCC1CCNCC1 [1.31, 5-(6-isopropoxy-5-(piperidin-4-ylmethylamino)pyridazin-3-ylamino)pyrazine-2-carbonitrile]
inhibition at 0.1 µM: 0% | inhibition at 1 µM: 11% | inhibition at 5 µM: 25%

CN(C)C(=O)c1nnc(Nc2cnc(C#N)cn2)cc1NCC1CCNCC1 [1.32, 6-(5-cyanopyrazin-2-ylamino)-N,N-dimethyl-4-(piperidin-4-ylmethylamino)pyridazine-3-carboxamide]
inhibition at 0.1 µM: 3% | inhibition at 1 µM: 3% | inhibition at 5 µM: 15%

N#Cc1cnc(Nc2cc(NCC3CCNCC3)c(OCC(F)(F)F)nn2)cn1 [1.33, 5-(5-(piperidin-4-ylmethylamino)-6-(2,2,2-trifluoroethoxy)pyridazin-3-ylamino)pyrazine-2-carbonitrile]
inhibition at 0.1 µM: 10% | inhibition at 1 µM: 35% | inhibition at 5 µM: 75%
